Test results: PubChem BioAssay (NCI)
“And” between values parts separate entries of the source, which are not always exact repeats. Identical values can stand only once.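 Briefly, cells in 96-well plates were exposed to five compound concentrations for 48 h, and endpoints were estimated by linear interpolation. At the GI50, growth is halved. TGI denotes the concentration required for complete inhibition of growth.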

Tests used:
Assay in all cases: NCI anticancer screen, dose series, 48 h
DU-145 prostate = tested on: DU-145 prostate
ACHN renal = tested on: ACHN renal
SR leukemia = tested on: SR leukemia
SW-620 colon = tested on: SW-620 colon
TK-10 renal = tested on: TK-10 renal
OVCAR-3 ovarian = tested on: OVCAR-3 ovarian
COLO 205 colon = tested on: COLO 205 colon
SK-MEL-2 melanoma = tested on: SK-MEL-2 melanoma
HT29 colon = tested on: HT29 colon
OVCAR-5 ovarian = tested on: OVCAR-5 ovarian

Compound	GI50 (DU-145 prostate)	TGI (DU-145 prostate)	GI50 (ACHN renal)	TGI (ACHN renal)	GI50 (SR leukemia)	TGI (SR leukemia)	GI50 (SW-620 colon)	TGI (SW-620 colon)	GI50 (TK-10 renal)	TGI (TK-10 renal)	GI50 (OVCAR-3 ovarian)	TGI (OVCAR-3 ovarian)	GI50 (COLO 205 colon)	TGI (COLO 205 colon)	GI50 (SK-MEL-2 melanoma)	TGI (SK-MEL-2 melanoma)	GI50 (HT29 colon)	TGI (HT29 colon)	GI50 (OVCAR-5 ovarian)	TGI (OVCAR-5 ovarian)
Cn1cc(C2=C(c3cn(CCCN/C(N)=N\[N+](=O)[O-])c4ccccc34)C(=O)NC2=O)c2ccccc21	6.75 µM	23.6 µM	6.26 µM	> 25 µM	0.898 µM	3.96 µM	5.63 µM	> 22.1 µM	5.87 µM	19.2 µM	1.17 µM	11.4 µM	1.24 µM	6.44 µM	0.614 µM	2.23 µM	2.87 µM	12.6 µM	11.4 µM	> 25 µM
O=c1c(Br)ccc(Br)cc1Br	1.75 µM	3.14 µM	1.26 µM	2.53 µM	0.367 µM	1.48 µM	0.268 µM	0.673 µM	1.55 µM	5.23 µM	0.926 µM	2.18 µM	0.216 µM	0.442 µM	2.39 µM	5.85 µM	1.77 µM	4.45 µM	1.76 µM	3.46 µM
COC(=O)/C=C/c1cc(OC)c2c(c1)[C@@H](C(=O)OC)[C@H](c1ccc(OC)c(OC)c1)O2	2.8 µM	> 100 µM	4.45 µM	> 100 µM	0.543 µM	> 100 µM	0.561 µM	> 100 µM	62.7 µM	> 100 µM	–	–	–	–	2.8 µM	> 100 µM	0.505 µM	> 100 µM	5.23 µM	> 100 µM
C/C(=N\O)c1ccc(Nc2cc(-c3ccccc3)nc3c(O)cccc23)cc1	13.5 µM	28.5 µM	10.7 µM	28.2 µM	1.27 µM	24.1 µM	13.9 µM	34.2 µM	12 µM	29.8 µM	5.49 µM	31.7 µM	20.7 µM	42.6 µM	17.3 µM	36.8 µM	19.8 µM	48.1 µM	23.8 µM	47.4 µM
COc1ccc2nc3c(cc2c1)C(=O)CC(C(F)(F)F)C3 (stereo not drawn)	0.714 µM	> 100 µM	1.02 µM	> 100 µM	0.262 µM	> 100 µM	2.68 µM	> 100 µM	> 84.1 µM	> 100 µM	1.65 µM	6.89 µM	0.958 µM	> 55.9 µM	0.847 µM	> 100 µM	0.433 µM	> 100 µM	5.56 µM	> 100 µM
COc1cc(-c2nc3cc(Cl)c(Cl)cc3[nH]2)ccc1OCC(=O)N=Nc1c(O)[nH]c2ccccc12	0.501 µM	1.9 µM	2.11 µM	13.8 µM	0.301 µM	> 100 µM	0.355 µM	1.43 µM	2.45 µM	6.76 µM	0.409 µM	1.43 µM	0.384 µM	1.5 µM	1.33 µM	3.27 µM	0.352 µM	4.72 µM	0.84 µM	2.45 µM
Cc1cnc2n(c1=O)Cc1ccccc1CO2	16.6 µM	32.1 µM	17.4 µM	33.8 µM	9.11 µM	27.9 µM	17.3 µM	49 µM	20.9 µM	49.4 µM	16.6 µM	34.3 µM	17.1 µM	37.1 µM	0.568 µM	2.04 µM	26.3 µM	96.9 µM	27.4 µM	> 92.4 µM
COc1ccc(S(=O)(=O)Nc2c(/C=C\c3cc(OC)c(OC)c(OC)c3)ccc(OC)c2O)cc1OC	0.388 µM	> 100 µM	0.526 µM	> 100 µM	0.0661 µM	> 75.9 µM	0.167 µM	> 100 µM	–	> 100 µM	0.21 µM	–	0.472 µM	2.99 µM	2.05 µM	> 100 µM	0.498 µM	> 100 µM	0.751 µM	> 100 µM
c1ccc2c(c1)-c1nc3ccccc3cc1C2N1CCOCC1 (stereo not drawn)	–	> 100 µM	–	> 100 µM	–	> 100 µM	–	> 100 µM	–	> 100 µM	–	> 100 µM	–	> 100 µM	–	> 100 µM	–	> 100 µM	–	> 100 µM
O=C(Nc1ccc(-n2cc(-c3ccncc3)c(-c3ccc(Cl)c(O)c3)n2)cc1)c1ccc(Cl)c(C(F)(F)F)c1	2.7 µM	> 20.3 µM	1.55 µM	5.28 µM	1.37 µM	> 26.2 µM	1.48 µM	3.14 µM	2.69 µM	11.3 µM	2.03 µM	6.24 µM	1.94 µM	4.64 µM	1.61 µM	4.69 µM	0.838 µM	3.05 µM	5.25 µM	29.4 µM
Nc1ncnc2c1c(-c1ccc(Oc3ccccc3)cc1)nn2C[C@H]1SSC[C@H]1O	1.07 µM	2.37 µM	0.499 µM	6.75 µM	0.0289 µM	0.127 µM	0.395 µM	> 100 µM	0.289 µM	1 µM	0.188 µM	0.421 µM	0.464 µM	1.8 µM	0.16 µM	0.435 µM	0.179 µM	1.48 µM	2.2 µM	> 31.3 µM
CN(CC(=O)O)Cc1c[nH]c2ccccc12	–	> 100 µM	–	> 100 µM	–	> 100 µM	–	> 100 µM	–	> 100 µM	–	> 100 µM	–	> 100 µM	–	> 100 µM	–	> 100 µM	–	> 100 µM
CC/C(=C(/c1ccc(Cl)cc1)c1ccc(OCCCN(C)C)cc1)c1ccc(OC)cc1	3.48 µM	10.1 µM	5.61 µM	12.4 µM	0.983 µM	2.27 µM	1.16 µM	2.96 µM	6.23 µM	13 µM	3.27 µM	10.5 µM	0.915 µM	1.77 µM	8.01 µM	15.6 µM	1.06 µM	2.42 µM	6.54 µM	14.2 µM
COC(=O)c1cccc(COc2ccc([N+](=O)[O-])cc2Cl)c1	–	> 100 µM	–	> 100 µM	–	> 100 µM	–	> 100 µM	–	> 100 µM	–	> 100 µM	–	> 100 µM	–	> 100 µM	–	> 100 µM	–	> 100 µM
COc1cccc(-c2nn(C)c3sc(C(=O)NCCN4CCN(c5ccccc5F)CC4)cc23)c1	34.2 µM	> 100 µM	19.2 µM	> 100 µM	5.43 µM	> 100 µM	33.7 µM	> 100 µM	65.4 µM	> 100 µM	20.6 µM	> 100 µM	20.6 µM	> 100 µM	33.9 µM	> 100 µM	4.66 µM	51.3 µM	6.55 µM	96.6 µM
C=CCOc1ccc2c(c1)CC[C@@H]1[C@@H]2CC[C@]2(C)C(=O)/C(=N/O)C[C@@H]12	3.1 µM	15.6 µM	2.58 µM	> 37.2 µM	2.3 µM	7.84 µM	2.33 µM	12.2 µM	1.49 µM	13.3 µM	7.06 µM	25.9 µM	3.16 µM	12.6 µM	3.08 µM	10.4 µM	1.81 µM	4.68 µM	4.18 µM	> 45.4 µM
NC1=C(O)/C(=N/NS(=O)(=O)c2ccccc2)C(c2cccc(Cl)c2)O1 (stereo not drawn)	–	> 100 µM	–	> 84.1 µM	–	9.15 µM	–	35.8 µM	–	> 95.8 µM	–	55.5 µM	–	30 µM	–	66 µM	–	55 µM	–	> 90.4 µM
COc1ccc(/C=N/C2=C(C#N)C(c3ccccc3)c3ccc4ccccc4c3O2)cc1 (stereo not drawn)	0.428 µM	> 100 µM	0.69 µM	> 100 µM	0.304 µM	> 75.8 µM	0.316 µM	> 100 µM	26 µM	> 100 µM	0.343 µM	> 100 µM	0.719 µM	8.49 µM	0.545 µM	> 100 µM	0.53 µM	> 100 µM	0.885 µM	> 100 µM
OC(c1cc2c(Cl)cc(Cl)cc2c2cc(C(F)(F)F)ccc12)C1CCCCN1 (stereo not drawn)	2 µM	3.55 µM	1.82 µM	3.65 µM	1.49 µM	3.95 µM	1.76 µM	3.64 µM	2 µM	3.63 µM	1.91 µM	3.52 µM	1.88 µM	3.55 µM	2.27 µM	4.12 µM	1.97 µM	3.71 µM	1.58 µM	3.15 µM
CCCCCCOc1ccc(/C=N/Nc2cc(C)nc3ccc(Br)cc23)cc1	1.92 µM	3.7 µM	1.74 µM	3.11 µM	0.396 µM	1.85 µM	1.56 µM	3.56 µM	1.93 µM	3.36 µM	1.94 µM	3.65 µM	1.85 µM	3.51 µM	1.78 µM	3.32 µM	1.63 µM	3.12 µM	1.94 µM	3.36 µM
COc1cc(/C=C/C(=O)c2ccc(SC)cc2)cc(OC)c1OC	12.8 µM	26.4 µM	6.98 µM	19.5 µM	3.56 µM	> 100 µM	6.89 µM	21.6 µM	18 µM	33.5 µM	10.9 µM	23.8 µM	13.3 µM	31.5 µM	17 µM	31.6 µM	4.15 µM	24.4 µM	20.6 µM	35.6 µM
COc1ccc(-c2nn(C(=O)c3cc(OC)c(OC)c(OC)c3)c3cc(N)ccc23)cc1	< 0.013 µM	0.345 µM	< 0.0151 µM	2.67 µM	< 0.01 µM	–	< 0.01 µM	23.4 µM	6.09 µM	27.4 µM	< 0.01 µM	–	0.0217 µM	0.0489 µM	2.55 µM	27.6 µM	< 0.0142 µM	1.13 µM	1.54 µM	27.3 µM
NC(CSC(c1ccccc1)(c1ccccc1)c1ccc(Br)cc1)C(=O)O (stereo not drawn)	0.236 µM	0.548 µM	11.6 µM	> 100 µM	1.33 µM	> 38.7 µM	0.1 µM	27.7 µM	14 µM	> 100 µM	0.0942 µM	0.412 µM	0.241 µM	15.2 µM	14.5 µM	> 78.2 µM	0.399 µM	> 54.9 µM	5.13 µM	> 100 µM
N[C@@H](Cc1ccc(N(CCCl)CCCl)cc1)C(=O)O	18.8 µM	85.7 µM and 227 µM	3.99 µM	21.5 µM and 78.2 µM	–	39.1 µM and 71.4 µM	19.5 µM and 17.2 µM	> 100 µM and 56.8 µM and 157 µM	75.3 µM	> 100 µM and 175 µM	22.5 µM and 10.4 µM	55.3 µM and 26.3 µM and 105 µM	23.6 µM and 18.4 µM	> 100 µM and 37.1 µM and 107 µM	17.4 µM	33.5 µM and 112 µM	54.2 µM and 42.3 µM	> 100 µM and 235 µM	19.1 µM	> 100 µM and 64.7 µM and 140 µM
COc1ccc(/C=C2\CCC(CN(C)C)C2=O)cc1 (stereo not drawn)	–	5.8 µM	–	21.3 µM	–	6.21 µM	–	4.32 µM	–	14 µM	–	10.6 µM	–	10.4 µM	–	17.6 µM	–	24.1 µM	–	30 µM
Nc1c2c(c(O)c3c1=C(CO)C=N3)=NCCS2=O (stereo not drawn)	1.54 µM	2.87 µM	–	–	1.76 µM	9.33 µM	2.1 µM	4.22 µM	17.5 µM	31.8 µM	0.28 µM	0.986 µM	1.71 µM	3.52 µM	1.45 µM	3.8 µM	1.78 µM	4.46 µM	1.66 µM	3.91 µM
O=C1/C=C/[C@@H](O)[C@@H]2C[C@@H](O)C[C@H]2/C=C/CCCCO1	0.857 µM	> 100 µM	0.43 µM	> 23.6 µM	8.61 µM	> 100 µM	0.247 µM	0.752 µM	0.388 µM	26.2 µM	0.202 µM	0.468 µM	0.188 µM	0.393 µM	0.257 µM	–	0.338 µM	> 100 µM	0.682 µM	> 61.7 µM
